Test results as given in publication PMC2751816, “Functional, Non-Clonal IgM^a-Restricted B Cell Receptor Interactions with the HIV-1 Envelope gp41 Membrane Proximal External Region” (PLoS ONE, 2009).

Key:
[1] = tested on: BALB/c B cells (gp41 MPER tetramer binding); test: Cold inhibition of APC-labeled gp41 MPER tetramer binding by unlabeled tetramers; type: cell-based, mouse (BALB/c); conditions: unlabeled competitor tetramer pre-incubated; Fig. 4A,B; average of three experiments (4B)
Method: FACS staining of single cell suspensions (≥2×10^6) was conducted using pre-mixed combinations of fluorochrome-labeled Abs and APC-conjugated B cell tetramers at empirically-determined optimal concentrations. All Abs were from BD unless otherwise stated. Primary antibodies used were: PerCP anti-B220, FITC anti-IgD, FITC, PE or PE-Cy7 anti-IgM, PE anti-CD5, FITC anti-CD11b, PE-Cy7 anti-CD19, FITC anti-CD21, PE-Cy7 anti-CD23 (eBiosciences), and PE-Cy7 anti-CD93 (eBiosciences). Other reagents included biotinylated Abs against dump channel markers: Thy1 (Abcam), F4/80 (Abcam), CD11c, Gr-1, TER-119, and NK-1.1, secondary staining SA-Texas Red conjugate; v-amine live/dead violet dye (Molecular Probes), and Fc block (anti-CD16/32).
Staining was conducted at 4°C in several sequential steps in FACS staining buffer (1X PBS with 2% FCS, 0.1% NaN3), washing twice between steps. Cells were first incubated with v-amine live/dead dye for 15 min, then stained with APC-labeled tetramers for 30 min (and in some experiments, cold tetramer was incubated at 10 fold molar excess for 1 h, prior to staining with APC-labeled tetramers). Cells were then stained with Fc block, followed by incubation with combinations of primary Abs, and secondary staining with SA-Texas Red, each for 30 min. Data (≥2.5×10^5 events/sample) were acquired using an LSRII flow cytometer and Cell Quest software (BD Immunocytometry systems). FACS Analysis was performed using FlowJo software (Tree Star). For analysis, cells were gated in the following order: single cells were gated based on fsc height vs. fsc area+ssc height vs. ssc profiles, lymphocytes were gated on fsc and ssc profile, residual dead cells were excluded by negative gating with v-amine live/dead dye, and irrelevant non-B cells were excluded by negative gating with dump markers.

[2] = biological target: gp41 MPER peptide (nominal 2F5 epitope of the HIV-1 gp41 membrane proximal external region), N-biotinylated (HIV-1); test: SPR; monomeric or F(ab)2 IgM fragments injected over biotinylated peptides anchored to a SA-coated sensor chip; BIAcore 3000, BIAevaluation 4.1

Substance: DWEYSLWLSN [dsDNA tetramers, double-stranded DNA (dsDNA) mimic tetramer made from the R4A peptide […], reference compound]
- inhibition of APC-labeled gp41 MPER tetramer binding (in words) [1]: minimal competition with gp41 MPER binding

Substance: monomeric IgM^a fragment of the purified mouse TNP-KLH-specific IgM^a mAb, BD clone G155-228 (antibody)
- Kd [2]: 276 nM
